Like-named read-outs stand apart in the source and are kept apart here.
Legend:
[1] = Example 1 trial: adverse events / tolerability; type: in vivo, human; conditions: 600 mg orally twice daily
[2] = test system: SARS-CoV-2; type: in vivo
[3] = test system: SARS-CoV-2 RNA; type: in vivo; conditions: for Mean (SD) Viral Load Change from Baseline / Percent Positive for SARS-CoV-2 RNA: nasopharyngeal swabs; for Percent Positive for SARS-CoV-2 RNA: 177 samples
[4] = in vivo
Source text: (§1) After randomization, eligible subjects underwent a physical examination, collection of nasopharyngeal swabs, and blood and urine samples for laboratory safety testing and assessment of SARS-CoV-2 antibody titers. Study drug was dispensed, and subjects were followed for 28 days. Subjects were instructed to complete electronic diaries recording oral temperature twice daily and symptom severity once daily in the evening for 21 days and were contacted daily by telephone by site staff on study days 2-7 and 28 to verify compliance and screen for progression to severe illness or other complications. Repeat nasopharyngeal swabs were collected on study days 4 and 10. Follow up blood and urine samples for laboratory safety testing and assessment of SARS-CoV-2 antibody titers were collected on study day 22. Subjects were allowed to use acetaminophen and/or dextromethorphan for symptom relief along with standard-of-care rescue medications. Adverse events were collected continuously throughout the study and monitored until the events resolved.
(§2) Efficacy analyses were based on a modified intention to treat (mITT) population of subjects testing positive for SARS-CoV-2 at baseline.

[5] = test system: COVID-19; conditions: 600 mg twice daily for seven days; hospitalized moderate to severe COVID-19; cited from earlier work
[6] = Example 5 trial: safety analyses (adverse events); conditions: one severe COVID-19, one aspiration (SARS-CoV-2 negative); not considered related to study medication
Source text: as §1, §2

[7] = 133 subjects with moderate illness at baseline
[8] = all SARS-CoV-2-positive subjects (mITT)
[9] = all SARS-CoV-2-positive subjects (mITT), 600 mg twice daily for 5 days
[10] = all SARS-CoV-2-positive subjects (mITT), listed as NTZ
[11] = all SARS-CoV-2-positive subjects (mITT), listed as nitazoxanide
[12] = subgroup 'May Be' or 'At Increased Risk' for severe COVID-19 per CDC (protocol-defined stratification factor)
[13] = subgroup At High Risk of progressing to severe COVID-19 and/or hospitalization (per EUA documents for monoclonal antibodies)
[14] = subgroup At Increased Risk for severe COVID-19 per CDC

## CC(=O)Oc1ccccc1C(=O)Nc1ncc([N+](=O)[O-])s1 [Nitazoxanide, 2-(acetolyloxy)-N-(5-nitro-2-thiazolyl) benzamide]
[1]; placebo 1.0%
  adverse event: mild chromaturia, subjects: 14.6%
[1]; placebo 4.9%
  adverse event: diarrhea, subjects: 6.6%
[2]; 68 subjects with moderate illness at baseline in nitazoxanide arm, placebo two of 65
  subjects progressing to severe illness: None and none
[2]; [7]
  TSR vs placebo: longer
  time to return to usual health vs placebo: longer
[2]; [8]
  relative reduction in rate of hospitalization, emergency room visit or death vs placebo: 82%
  relative reduction of progression to severe COVID-19 vs placebo: 85%
  subjects experiencing hospitalization, emergency room visit or death (%): 0.5%
  subjects experiencing hospitalization, emergency room visit or death (n/N): 1/184
[2]; [9]
  subjects progressing to severe COVID-19 (%): 0.5%
  subjects progressing to severe COVID-19 (n/N): 1/184
[2]; all SARS-CoV-2-positive subjects (mITT), 600 mg twice daily for 5 days, listed as NTZ
  subjects progressing to severe COVID-19 (%): (0.5%)
[2]; all SARS-CoV-2-positive subjects (mITT), 600 mg twice daily for 5 days, listed as nitazoxanide
  subjects progressing to severe COVID-19 (%): 0.5%
[2]; [10]
  relative reduction in rate of hospitalization, emergency room visit or death vs placebo: 82%
  relative reduction of progression to severe COVID-19 vs placebo: 85%
  subjects experiencing hospitalization, emergency room visit or death (%): (0.5%)
[2]; [11]
  relative reduction in rate of hospitalization, emergency room visit or death vs placebo: 82%
  relative reduction of progression to severe COVID-19 vs placebo: 85%
[2]; all mITT subjects, placebo 12.35 (7.18->21), p=0.88
  Median (IQR) time from first dose to sustained response (TSR): 13.28 (6.26->21) days
[2]; [12]
  relative reduction in rate of hospitalization, emergency room visit or death vs placebo: 81%
  relative reduction of progression to severe COVID-19 vs placebo: 84%
  subjects experiencing hospitalization, emergency room visit or death (%): (0.9%)
  subjects experiencing hospitalization, emergency room visit or death (n/N): 1/112
  subjects progressing to severe COVID-19 (%): (0.9%)
  subjects progressing to severe COVID-19 (n/N): 1/112
[2]; [13]
  relative reduction in rate of hospitalization, emergency room visit or death vs placebo: 77%
  relative reduction of progression to severe COVID-19 vs placebo: 81%
  subjects experiencing hospitalization, emergency room visit or death (%): (1.7%)
  subjects experiencing hospitalization, emergency room visit or death (n/N): 1/60
  subjects progressing to severe COVID-19 (%): (1.7%)
  subjects progressing to severe COVID-19 (n/N): 1/60
[2]; [14]
  relative reduction in rate of hospitalization, emergency room visit or death vs placebo: 81%
  relative reduction of progression to severe COVID-19 vs placebo: 83%
  subjects experiencing hospitalization, emergency room visit or death (%): (1.0%)
  subjects experiencing hospitalization, emergency room visit or death (n/N): 1/104
  subjects progressing to severe COVID-19 (%): (1.0%)
  subjects progressing to severe COVID-19 (n/N): 1/104
[2]; subjects with mild illness at baseline, n=116, placebo 13.4
  median TSR: 10.3 days
[2]; subjects with mild illness at baseline, p=0.0075
  reduction of median time to return to usual health vs placebo: 5.2 days
[2]; subjects with mild illness at baseline, p=0.0932
  reduction of median TSR (time to sustained clinical recovery) vs placebo: 3.1 days
[2]; subjects with mild illness at baseline, placebo 18.4
  median time from first dose until subjects reported returning to usual health: 13.2 days
[3]; Day 4
  Mean (SD) Viral Load Change from Baseline: −0.70 (1.573) log10 copies/mL
  Percent Positive for SARS-CoV-2 RNA: 94%
[3]; Day 10
  Mean (SD) Viral Load Change from Baseline: −2.49 (1.582) log10 copies/mL
  Percent Positive for SARS-CoV-2 RNA: 73%
[3]; single NTZ-treated subject who progressed to severe COVID-19, Day 1 value 7.39
  Viral Load Day 4: 7.39/4.79 log10 RNA copies/mL
[4]; human
  subjects reporting at least one adverse event (%): 13.3%
  subjects reporting diarrhea (%): 3.4%
[4]
  subjects reporting at least one adverse event (number): Sixty-three
  subjects reporting serious adverse events: Two
  subjects who discontinued study medication due to adverse events: Two
[4]; po
  safety and tolerability: safe and well tolerated
[5]
  duration of supplemental oxygen vs placebo: reductions
  rate of mechanical ventilation vs placebo: reductions
  rate of mortality vs placebo: reductions
  time to hospital discharge vs placebo: reductions
[6]
  subjects who died during the study: Two

From patent publication US20230330069A1, “USE OF THIAZOLIDES AGAINST CORONAVIRUSES” (Romark Laboratories, L.C., priority 2020, published 2023)
